Experimental data as given in US8785156B2, “TLE3 as a marker for chemotherapy” (Clarient Diagnostic Services, Inc., priority 2007, dated 2014).

Test system: ovarian cancer patients (UAB cohort)
Test: Kaplan-Meier recurrence curves, University of Alabama at Birmingham (UAB) ovarian cancer cohort, patients classified by TLE3 antibody staining
Format: in vivo, human
Details: all patients received paclitaxel, most also platinum chemotherapy (carboplatin or cisplatin)
Source text: All patients received paclitaxel. Most patients also received platinum chemotherapy (carboplatin or cisplatin). Recurrence data from TLE3-positive and TLE3-negative patients in this subset were used to generate the top and bottom curves, respectively. As shown in the Figure, antibody binding to the TLE3 marker correlated with prognosis in these treated patients (HR=0.64, p<0.049).
Kaplan-Meier recurrence curves that were generated using patients in the RP breast cancer cohort that received chemotherapy are consistent with this prediction model (see FIG. 6, HR=0.194, p=0.010). Kaplan-Meier recurrence curves that were generated using patients in the UAB ovarian cancer cohort that received chemotherapy are also consistent with this prediction model (see FIG. 18, HR=0.64, p=0.049).

For CC(=O)O[C@H]1C(=O)[C@@]2(C)[C@H]([C@H](OC(=O)c3ccccc3)[C@]3(O)C[C@H](OC(=O)[C@H](O)[C@@H](NC(=O)c4ccccc4)c4ccccc4)C(C)=C1C3(C)C)[C@]1(OC(C)=O)CO[C@@H]1C[C@@H]2O [paclitaxel], which “HR (recurrence, TLE3-positive vs TLE3-negative patients)” value is on record?
The value was 0.64.
